# From patent publication US8252740B2, “Thermally-targeted delivery of medicaments including doxorubicin” (The University of Mississippi Medical Center, priority 2006, dated 2012)
# Entries after “also recorded” stand apart in the source; their conditions may differ. Like-named read-outs stand apart in the source and are kept apart here. Marks after values point to notes of the source that are not given here.
# Columns and labels:
# Type in all cases: cell-based, human
# [1] = system: MES-SA uterine sarcoma cells; details: for IC50: cells counted after 72 h, ± SEM
# Method: MES-SA cells were treated for 1 h at 37 or 42° C. with 5 μM Tat-ELP-GFLG-DOX (SEQ ID NO: 3); ELP-GFLG-DOX (SEQ ID NO: 3), which lacks the Tat cell penetrating peptide; or Tat-ELP-GFLG (SEQ ID NO: 3), which is not labeled with DOX. After the 1 h treatment, cells were rinsed and fresh media was replaced for 72 h. Cells remaining after 72 h were collected by trypsinization and counted using a Coulter counter. […] Similarly, the control polypeptide which lacks the Tat sequence was not cytotoxic, likely because it cannot efficiently enter the cells.
# 1.8 Cytotoxicity Assay. Cells were plated and treated for 1 h at 37° C. and 42° C. as described above with Tat-ELP1-GFLG-Dox (SEQ ID NO: 3), Tat-ELP2-GFLG-Dox (SEQ ID NO: 3), or control polypeptides lacking the Tat sequence or unlabeled with Dox. Cells were rinsed and harvested 72 h after treatment by trypsinization, collected by centrifugation, and resuspended in isotonic buffer. Cell number was determined using a Coulter counter and expressed as a percentage of untreated cells.
# 1.10. Data Fitting and Statistical Analysis. The concentration dependence of the Tt was fit with a logarithmic equation using Microsoft Excel. Dose-response curves were fit using exponential or sigmoid equations as applicable using Microcal Origin in order to determine the 50% inhibitory concentration (IC50). […] The significance of the thermal targeting index was assessed by comparing the normothermia group with the hyperthermia group using a paired Student's t-test in Microsoft Excel. p values of less than 0.05 were considered statistically significant. Polypeptide uptake and caspase activation were analyzed for statistical differences using one-way ANOVA analyses with post-hoc Scheffe's tests for pair-wise comparisons of treatment groups. The statistical significance level was p<0.05.
# 3.5. Cytotoxicity of ELP-delivered Dox. The growth-inhibitory activity of Tat-ELP-GFLG-Dox (SEQ ID NO: 3) was evaluated in the MES-SA uterine sarcoma cell line. MES-SA cells were treated for 1 h at 37° C. or 42° C. with various concentrations of Tat-ELP-GFLG-Dox (SEQ ID NO: 3); ELP-GFLG-Dox (SEQ ID NO: 3), which lacks the Tat cell penetrating peptide, the Tat-ELP-GFLG (SEQ ID NO: 3) polypeptide without Dox; or free Dox. After the 1 h treatment, the cells were rinsed and fresh media was replaced for 72 h. Cells remaining after 72 h were rinsed, collected by trypsinization, and counted using a Coulter counter. […] The toxicity of the unlabeled Tat-ELP-GFLG (SEQ ID NO: 3) protein was negligible when treated below the Tt.
# MES-SA cells [2] = assay: Caspase activation, FLICA polycaspase assay with flow cytometry; details: 10 μM, 1 h
# Method: MES-SA cells were treated for 1 h at 37 or 42° C. with Tat-ELP-GFLG-DOX (SEQ ID NO: 3), the control construct lacking the Tat sequence, with free DOX. Cells were harvested after the 1 h exposure, and caspase activity was detected using a fluorescent caspase inhibitor (Immunochemistry Technologies, Bloomington, Minn.) and flow cytometry.
# Caspase activation was measured using a carboxyfluorescein FLICA polycaspase assay (Immunochemistry Technologies, Bloomington, Minn.). Cells were treated as described above with the indicated protein, collected by trypsinization, and stained for 2 h at 37° C. with the carboxyfluorescein FLICA reagent as described by the manufacturer. Cells were rinsed twice and analyzed for caspase activation by flow cytometry using a Cytomics FC 500 flow cytometer (n=5,000 cells). Forward versus side scatter gating was used to eliminate cell debris from the analysis, and a histogram of fluorescein fluorescence (channel FL1) was bimodal with peaks for caspase positive and caspase negative cells. The percentage of caspase positive cells was determined from the histograms and expressed as an average of 3 experiments.
# MES-SA cells were treated as described above, cells were harvested after the 1 h exposure, and caspase activity was detected using a fluorescent caspase inhibitor and flow cytometric analysis. […] Cell numbers under each peak were quantified and averaged to determine the percentage of the cell population in which caspases were activated under each treatment condition. […] In fact, the percent of caspase positive cells was enhanced almost 4 fold when cells were treated with Tat-ELP1-GFLG-Dox (SEQ ID NO: 3) at 42° C. versus 37° C. (p<0.05).
# MES-SA cells [3] = assay: DIC microscopy of apoptotic cell morphology; details: 10 μM, 1 h, temperature not distinguished
# Method: 1.9. Apoptosis Assays. For differential interference contrast (DIC) microscopy, MES-SA cells were plated onto 22 mm^2 coverslips at 50% confluence. Cells were treated as described above with the indicated protein, rinsed with PBS, and mounted onto glass slides. The unfixed cells were imaged immediately using a Zeiss Axiovert 200 DIC microscope with a 40× oil immersion objective and a Coolsnap HQ camera.
# 2.6. Induction of Apoptosis. […] This effect was documented by treating MES-SA cells adhered to glass cover slips with each construct and imaging them by DIC microscopy. Cells were treated for 1 h as described above, then immediately mounted on slides and imaged without fixation. […] Untreated cells were spread onto the glass, and morphological features such as nuclei and endocytic vesicles were readily visible. This morphology was not altered by simply exposing the cells to hyperthermia. […] However, such effects were minor and limited to a fraction of the cells. […] All cells examined were rounded with no discernable nucleus and fragmented chromosomes.
# MES-SA cells [4] = assay: Confocal fluorescence microscopy of intracellular localization; details: 10 μM, after 1 h exposure; listed as free drug
# Method: 1.7. Laser Scanning Confocal Fluorescence Microscopy. MES-SA cells were plated on 22 mm^2 cover slips at approximately 50% confluence and treated as described above with Tat-ELP-GFLG-Dox (SEQ ID NO: 3). Cells were rinsed with PBS at the indicated times, fixed with paraformaldehyde (PFA, 2% v/v) and visualized using a TCS SP2 laser scanning confocal microscope with a 100× oil immersion objective (Leica, Wetzlar, Germany). PMT voltages were lowered for imaging of cells treated at 42° C. during image acquisition to maximize image resolution and intensity.
# 3.4. Cellular Distribution. To confirm that Tat-ELP-GFLG-Dox (SEQ ID NO: 3) was internalized and not merely attached to the cell exterior, the cellular distribution of the ELP-delivered drug was examined by confocal fluorescence microscopy. MES-SA cells were treated for 1 h at 37° C. and 42° C. with 10 μM Tat-ELP1-GFLG-Dox (SEQ ID NO: 3). The cells were rinsed and analyzed immediately after treatment and 24 h later using the intrinsic Dox fluorescence. […] Untreated cells had no signal under the imaging settings used, ruling out any contribution to the images from autofluorescence (FIG. 7B, right panel).
# MES-SA/Dx5 cells [5] = assay: Proliferation of doxorubicin-resistant cells, continuous 72 h exposure
# Method: To test the ability of the ELP doxorubicin carrier to overcome this drug resistance, a uterine cancer cell line (MES-SA) and its doxorubicin resistant subline MES-SA/Dx5 were treated with either free doxorubicin or ELP-delivered doxorubicin.
# A major problem with classical chemotherapy is the development of drug resistance. The most common mechanism of resistance is expression of a drug efflux pump (MDR1) by the cancer cells in response to drug treatment. This pump can remove drugs from the cells, and, though induced by one drug, it can act on a wide variety of others, resulting in a phenomenon called multi-drug resistance. […] The present inventors used this cell line to determine whether ELP delivered DOX can overcome MDR1-mediated resistance to doxorubicin. MES-SA/Dx5 cells were incubated with Tat-ELP-GFLG-DOX (SEQ ID NO: 3) continuously for 72 h.
# MES-SA/Dx5 cells [6] = assay: Drug efflux by flow cytometry; details: loaded 5 h with 10 μM
# Method: For further evidence that Tat-ELP-GFLG-DOX (SEQ ID NO: 3) can bypass the drug efflux pump, flow cytometry was used to analyze drug efflux from cells treated with free DOX or with Tat-ELP-GFLG-DOX (SEQ ID NO: 3). Cells were loaded for 5 h with either 10 μM DOX or Tat-ELP-GFLG-DOX (SEQ ID NO: 3), then the drug was removed and fresh media was replaced. Cells were collected and analyzed for DOX content using flow cytometry. […] The cells with low DOX fluorescence have pumped the drug out. As time passes after removal of the drug, the DOX positive peak gets lower in intensity and becomes a smaller percentage of the population. This illustrates the removal of DOX from theses cells with time after washing the drug out of the media. […] This means that all cells have the same amount of drug in them. This single peak is still evident at all time points after removal of the drug. This means that these cells are unable to pump the ELP delivered DOX out.
structure (smiles),measurement,setting,value
"COc1cccc2c1C(=O)c1c(O)c3c(c(O)c1C2=O)C[C@@](O)(C(=O)CO)C[C@@H]3O[C@H]1C[C@H](N)[C@H](O)[C@H](C)O1 [Dox, doxorubicin]",Cytotoxicity in words,[1],more cytotoxic than the polymer-delivered drug
same,IC50 relative to Tat-ELP-GFLG delivered Dox (times lower),[1],about 150 times
same,IC50,"[1]; 1 h treatment at 37° C., read-out: IC50 (37° C.)",130 ± 10 nM
same,IC50,"[1]; 1 h treatment at 42° C., read-out: IC50 (42° C.)",58 ± 20 nM
same,Thermal Targeting Index (IC50 37°/IC50 42°),[1]; IC50 at 37° C. divided by IC50 at 42° C.,2.3 †
same,Enhancement of percent caspase positive cells at 42° C. versus 37° C.,MES-SA cells [2],not affected by hyperthermia
same,Caspase activation / apoptosis induction,MES-SA cells [2]; temperature not distinguished,induced apoptosis
same,Cell morphology (hallmarks of apoptosis),MES-SA cells [3],noticeable rounding and membrane blebbing
same,Intracellular localization of Dox,MES-SA cells [4],exclusively in the cell nucleus; also recorded: localizes entirely in the nucleus
same,Resistance of MES-SA/Dx5 relative to MES-SA cells,MES-SA/Dx5 cells [5],100 times
same,Resistance of MES-SA/Dx5 relative to MES-SA cells,MES-SA/Dx5 cells [5]; continuous 72 h exposure,about 100 fold
same,Drug efflux: Dox fluorescence histogram after removal of the drug,MES-SA/Dx5 cells [6],two populations
